Measured values taken from a melting point compilation (Tetko et al.; mined from patent text by program, amines drawn as free bases though some values may be those of a salt).

| melting point [°C] | Structure (SMILES) |
| --- | --- |
| 75 to 76 | COc1ccc2c(c1)CCC1(CCCCN1C(=O)C(F)(F)F)C2 (stereo not given) |
| 118 to 121 | COC(=O)CC(Oc1c(Br)cc(-c2c3ccccc3c(Br)c3sc4ccccc4c23)cc1Br)C(=O)OC (stereo not given) |
| 260 to 262 | COc1ccc(OC)c(Nc2ncc(C(=O)O)c(=O)[nH]2)c1 |
| 180 | Cc1ccccc1-c1cc(=O)c2cc(O)ccc2o1 |
| 41 to 42 | CCOC(=O)C(=CN(CC)c1cccs1)C(=O)OCC |
| 107 to 112 | O=C(c1ccccc1)C(O)C1OC(n2cnc3c(NC4CCCc5ccccc54)ncnc32)C(O)C1O (stereo not given) |
| 153 to 155 | CN(O)C(=O)Cc1ccc(-c2ccc(OCc3ccc4ccccc4n3)cc2)c(F)c1 |
| 267 to 270 | CCc1[nH]c(=O)[nH]c1-c1cc(C(C)(C)C)c(O)c(C(C)(C)C)c1 |
| 220 to 222 | CCNC(=O)c1cccc(-c2c(CC(=O)Nc3ccc(Cl)cc3C(F)(F)F)c(=O)oc3cc(Cl)c(C)cc23)c1 |
| 207 to 209 | N#Cc1ccc(-c2cc(-c3cc(C#N)ccc3Cl)on2)cc1 |
| 173 to 175 | Cc1cc(=O)c(OCc2ccccc2)c(C(=O)O)o1 |
| 156 | CCOc1ncc(S(=O)(=O)N2CCN(CC)CC2)cc1C(=O)Nc1c(C(N)=O)nn(CCOC)c1CC |
| 95 to 96 | Cc1cccc(C(=O)N(C)C)c1N |
| 198 to 199 | C[C@@H](n1cnc2cc(Oc3ccc(Cl)cc3)ccc2c1=O)[C@](O)(Cn1cncn1)c1ccc(F)cc1F |
| 156 to 160 | O=C(Oc1ccccc1)c1ccc2[nH]nnc2c1 |
| 128 to 129 | COc1cc(CCCC2OC(=O)NC2=O)ccc1OCc1nc(-c2ccccc2)sc1C (stereo not given) |
| 200 to 201 | CCc1[nH]cnc1-c1cc(C(C)(C)C)c(O)c(C(C)(C)C)c1 |
| 335 to 338 | N#Cc1ccc2c(c1)NC(=O)C2c1ncnc2c1cnn2C1CCCC1 (stereo not given) |
| 131 to 133 | C#CCOc1cc(-c2ncnc(C)c2C)c(F)cc1Cl |
| 65 | CCCCCCCCc1ccc(OCC(=O)Cn2ccc3ccccc32)cc1 |
| 107 | N#CC1CCc2ccc([N+](=O)[O-])cc2C(=O)C1 (stereo not given) |
| 208 to 210 | NC(=O)NN=C1CC(O)C(C=Cc2ccccc2)=C1CCCCCCC(=O)O (stereo not given) |
| 240 to 242 | CC(C)c1ccc(CN2CCC(NC(=O)NC(=O)c3ccccc3)CC2)cc1 |
| 204 to 206 | CCOC(=O)Cc1ccc(N2Cc3ccccc3C2=N)cc1 |

| melting point [°C] | Structure (SMILES) |
| --- | --- |
| 178 to 187 | CC(C)CC(NC(=O)c1ccccc1)C(=O)NC(CCCN(C(=N)NC(=O)OCc1ccccc1)C(=O)OCc1ccccc1)C(=O)Oc1cccc2ccccc12 (stereo not given) |
| 212 to 213 | CN1Cc2cccnc2N(c2ccc(F)cc2)C1=O |
| 290 to 292 | O=c1[nH]c(=S)[nH]cc1Cc1cnc2ccccc2c1 |
| 149 to 150 | COc1ccc(-c2cc3cc(OC)cc(CC#N)c3o2)cc1 |
| 121 to 122 | OCC(O)c1cccc(OCc2ccc3ccccc3c2)c1 (stereo not given) |
| 268 to 270 | CC(C)COc1ccc(-c2nc3cccc(C(=O)O)c3s2)cc1C#N |
| 262 | Cc1c(N=C2NCCN2)cc(Br)cc1NS(C)(=O)=O |
| 107 | CS(=O)(=O)N1CCN([C@@H](CNS(=O)(=O)c2ccc(OCc3noc4ccccc34)cc2)C(=O)NO)CC1 |
| 156 to 159 | O=C(O)c1ccc(CNC(=O)C(CS)Cc2ccccc2)cc1 (stereo not given) |
| 122 to 126 | O=C(CCCCC1CCSS1)NC(Cc1c[nH]cn1)C(=O)O (stereo not given) |
| 107 to 108 | CC(C)CC1(C(C)C(=O)NO)CCN(CCc2ccccc2)C1=O (stereo not given) |
| 62 | BrCCCCCCCCCCCCCCCCCCCCBr |
| 87 to 90 | CS(=O)(=O)OCC1CCN(C(=O)c2ccccc2)CC1 |
| 73 to 74 | COc1ccc(OC)c(CCNC(=O)N(C)O)c1 |
| 93 | CC(=O)SCC(C(=O)NC(C)C(=O)O)C(C)c1ccc(F)cc1 (stereo not given) |
| 53 to 55 | Cc1oc2c(OC(C)C#N)cccc2c1C (stereo not given) |
| 183 to 184 | CNC(=O)c1c(-c2ccccc2)noc1CC(O)c1ccccc1 (stereo not given) |
| 119 to 120 | CN(c1ccc(Cl)cc1)S(=O)(=O)c1cccc(C(=O)Nc2ccc(Cl)cc2F)c1 |
| 64 to 66 | CCCCCCCCCCCCCCOc1ccc([N+](=O)[O-])cc1OCCCCCCCCCCCCCC |
| 303 to 317 | Cc1[nH]cc2c(=O)n(-c3ccc(F)cc3)nc-2c1-c1ccccc1 |
| 94 | COC(=O)C1CCN(c2ccc(Cl)c(CBr)c2Cl)C1 (stereo not given) |
| 50 to 51 | COc1ccc2c(c1)CCC(Cc1ccccc1)C2=O (stereo not given) |
| 167 to 168 | CCN(CC)C(=O)/C=C(\C)c1ccc(OCc2c(F)cccc2F)c(CC(=O)O)c1 |
| 70 to 74 | CC1(C)OCC2OC2CO1 (stereo not given) |

| melting point [°C] | Structure (SMILES) |
| --- | --- |
| 122 to 124 | S=C(NCCCCN(Cc1ccc(Br)cc1)c1ccccn1)NCCCn1ccnc1 |
| 204 to 205 | Cn1nnc(-c2ccc3c(c2)S(=O)(=O)c2ccccc2C3=O)n1 |
| 203 to 207 | CCCCCc1ccccc1C=CC=C1SC(=S)N(CC(=O)O)C1=O |
| 140 to 141 | CC[C@H](C)[C@H](OCc1cc(F)cc(F)c1)[C@H]1[C@H]([N+](=O)[O-])[C@H](c2ccccc2)N[C@@H]1C(=O)NCC(=O)O |
| 153 to 154 | CN(C)C=Cc1ncc([N+](=O)[O-])n1CCOC(=O)c1ccccc1 |
| 131 to 132 | COC[C@@H](C)N1Cc2c(ccc(Cl)c2NC(=O)c2ccc(F)c(C(F)(F)F)c2)C1=O |
| 132 to 133 | CCOC(=O)c1c(CN(CC)CC)nc2ccc(Cl)cc2c1-c1ccc(Cl)cc1 |
| 109 to 111 | CNC(=O)C(=NOC)c1ccccc1ON=C(C)c1cccc(C)c1 |
| 211 | Cn1c(-c2cnc(-c3ccccc3)nc2)cnc1-c1ccccc1 |
| 94 to 98 | O=C(Cc1ccc(-c2ccc(C(CC3CCOCC3)c3ccc(S(=O)(=O)C4CC4)cc3)[nH]2)nc1)N1CCC1 (stereo not given) |
| 80 to 81.2 | OCCCCCCCCCCCCCCCCNCCO |
| 164 to 167 | COc1cccc(C2C=C(C)NC3=C2C(=O)CCC3)c1 (stereo not given) |
| 206 to 207 | COc1cc(C(=O)C=Cc2ccncc2)ccc1OCC(=O)Nc1nc2ccccc2s1 |
| 258 to 260 | COc1ccc2c(c1)S(=O)(=O)c1c(cc(OC)c(OC(C)=O)c1Br)N2 |
| 86 to 91 | CCOC(=O)[C@H](Cc1ccc(-c2c(C(F)(F)F)cc(C)n(C)c2=O)cc1)NC(=O)c1c(Cl)cccc1Cl |
| 175 | Cc1nn(C)c(Cl)c1C(=O)Nc1cccc2c1CCC2(C)C |
| 77 to 79 | Cc1ncnc(-c2ccc(Cl)cc2F)c1Cl |
| 246 to 249 | O=C(O)C1=Cc2ccc3ccccc3c2OC1C(F)(F)F (stereo not given) |
| 112 to 115 | O=[N+]([O-])c1cccc(/C=C/c2csc(C3CCC3)n2)c1 |
| 204 to 206 | Cn1cncc1-c1cc(C=NN(CCC(C)(C)O)C(N)=S)nc(NC2CCN(S(C)(=O)=O)CC2)n1 |
| 119 to 121 | CCOC(=O)N1CCC(c2ccc(COc3ccc(S(C)(=O)=O)cc3)nc2)CC1 |
| 188 to 190 | CC1(c2ccccc2)Cc2cc(OCCO)c(Cl)c(Cl)c2C1=O (stereo not given) |
| 164 to 165 | N#Cc1ccc(C(=O)N2CCN(c3ccncc3)CC2)cc1 |
| 59 to 61 | C[C@H](OC(=O)CCC(=O)O[C@@H](C)C(=O)O)C(=O)O |

| melting point [°C] | Structure (SMILES) |
| --- | --- |
| 63 | O=Cc1ccc(C(F)(F)F)cc1[N+](=O)[O-] |
| 136 to 138 | Nc1ccc(Oc2cc(Cl)ncn2)cc1 |
| 38 to 39 | C(C#CSCc1ccccc1)#CSCc1ccccc1 |
| 99 to 103 | Cc1cc(C)c(/C=C/C=O)c(Br)c1 |
| 226 to 228 | CC(=O)Nc1ccc(C=C2CCc3ncc(C)cc3C2=O)cc1 |
| 98 to 100 | COc1ccc(CN2C(=O)CN(Cc3cccc(I)c3)S2(=O)=O)cc1 |
| 123 to 125 | N#CC1c2cc(OCc3ccccc3)cc(OCc3ccccc3)c2C=CN1C(=O)c1ccccc1 (stereo not given) |
| 106 to 108 | CC(COc1ccccc1)C1SC(=O)NC1=O (stereo not given) |
| > 300 | CC1COc2c(N3Cc4ccccc4C3)c(F)cc3c(=O)c(C(=O)O)cn1c23 (stereo not given) |
| 224 to 226 | COc1ccc(NC(=O)C23CC4CC(CC(C4)C2)C3)cc1OC |
| 125 to 127 | Cc1cc(C(=O)N(C2CCCCC2)C2CCCC2)ccc1Br |
| 76 to 77 | CCOC(=O)CNC(=O)CCCCCNC(=O)OC(C)(C)C |
| 145 to 147 | CCOC(=O)c1c(C=O)c2ccc3sc4ccccc4c3c2n1C |
| 147 | CC(=O)OC1CSC(Oc2ccc(C#N)nc2)C(OC(C)=O)C1OC(C)=O (stereo not given) |
| 196 to 197 | CCOC(=O)c1cc2c(C=O)cc3c4ccccc4ccc3c2s1 |
| 99 to 102 | CCOC(=O)CC(=O)COCC1=C(C(=O)OCC)C(c2cccc(Cl)c2Cl)C(C(=O)OC)=C(C)N1 (stereo not given) |
| 107 to 109 | C#CCCC(=O)Oc1cc(-n2c(OC)nc(C(F)(F)C(F)(F)F)c(F)c2=O)c(F)cc1Cl |
| 119 to 126 | CC(C)(C)OC(=O)N1C2CCC(C2)N1CC(O)C(Cc1ccccc1)NC(=O)OCc1ccccc1 (mixture of isomers) |
| 186 to 188 | Cc1c(CC(=O)O)c2cc(O)ccc2n1C(=O)c1ccccc1 |
| 210 | O=C(O)c1sc2cc(OCc3cccnc3)ccc2c1S(=O)c1ccccc1CO (stereo not given) |
| 163 to 165 | CCCN1CC(c2ccc(S(C)(=O)=O)cc2)=C(Oc2ccccc2)C1=O |
| 130 to 140 | Cc1nc(O)cc(C2(c3ccc(Cl)cc3)CCC2)n1 |

| Structure (SMILES) | melting point [°C] |
| --- | --- |
| Cc1nncn1-c1ccc(Cl)cc1C(=O)c1ccccc1Cl | 148 |
| NCCc1cc(F)cc(C(F)(F)F)c1 | > 170 |
| COC1CCC2(C)C(=CCC3C4CCC(=O)C4(C)CCC32)C1 (stereo not given) | 133 to 135 |
| CN(C)c1ccnc(N(C)C2CCN(CCCC(c3ccc(F)cc3)c3ccc(F)cc3)CC2)n1 | 106 |
| CC1Cc2cc(Cl)ccc2C(c2ccc([N+](=O)[O-])cc2)=NN1 (stereo not given) | 152 to 154 |
| O=c1c2cc(O)ccc2nc(C(S)c2ncnc3[nH]cnc23)n1-c1ccccc1Cl (stereo not given) | 186 to 214 |
